# According to ChEMBL document CHEMBL1142674, “Amino acid ester prodrugs of the antiviral agent 2-bromo-5,6-dichloro-1-(beta-D-ribofuranosyl)benzimidazole as potential substrates of hPEPT1 transporter” (J Med Chem, 2005):
# Calls of active or inactive are those of the source. The calls are words filed in the database; no cut-off is given here.
# Experiments:
# Type in all cases: cell-based
# [1] = biological target: T1, Solute carrier family 15 member 1 (Homo sapiens) (UniProt P46059); test: Relative inhibition of [3H]glycylsarcosine uptake in HeLa cells expressing human Intestinal peptide transporter PepT1 compared to BDCRB
# T1 sequence (whole entry): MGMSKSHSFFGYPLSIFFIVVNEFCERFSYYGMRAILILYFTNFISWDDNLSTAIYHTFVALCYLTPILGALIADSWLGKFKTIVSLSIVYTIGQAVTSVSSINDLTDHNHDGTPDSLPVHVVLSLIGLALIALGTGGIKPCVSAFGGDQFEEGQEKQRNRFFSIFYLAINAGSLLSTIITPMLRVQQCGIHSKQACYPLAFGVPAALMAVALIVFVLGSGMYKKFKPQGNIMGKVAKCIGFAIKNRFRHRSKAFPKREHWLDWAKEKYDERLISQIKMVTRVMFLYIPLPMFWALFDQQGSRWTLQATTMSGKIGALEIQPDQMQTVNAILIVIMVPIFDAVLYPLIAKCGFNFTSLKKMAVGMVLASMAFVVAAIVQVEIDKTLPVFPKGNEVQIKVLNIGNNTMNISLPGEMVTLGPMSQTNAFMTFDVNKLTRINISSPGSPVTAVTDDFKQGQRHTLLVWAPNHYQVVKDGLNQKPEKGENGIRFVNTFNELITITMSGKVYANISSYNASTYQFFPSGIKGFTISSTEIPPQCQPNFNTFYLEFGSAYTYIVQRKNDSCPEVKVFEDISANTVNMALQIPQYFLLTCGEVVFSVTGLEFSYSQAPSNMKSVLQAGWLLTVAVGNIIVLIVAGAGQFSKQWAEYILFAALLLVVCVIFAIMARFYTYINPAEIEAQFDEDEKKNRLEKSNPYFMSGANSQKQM
# [2] = biological target: T2, Solute carrier family 15 member 1 (Homo sapiens, UniProt P46059); test: Inhibitory concentration against [3H]glycylsarcosine uptake in HeLa cells expressing human Intestinal peptide transporter PepT1
# T2 sequence (P46059 whole entry): T1 sequence (whole entry)
# [3] = biological target: T1, Solute carrier family 15 member 1 (Homo sapiens); test: Relative inhibition of [3H]glycylsarcosine uptake in HeLa cells expressing human Intestinal peptide transporter PepT1 compared to BDCRB; na=Not applicable
Structure (SMILES),Ratio [1],IC50 [2] [µM],Ratio [3]
CC(C)[C@@H](N)C(=O)OC[C@H]1OC(n2c(Br)nc3cc(Cl)c(Cl)cc32)[C@H](O)[C@@H]1O (stereo partly drawn),1.3,342,–
N[C@H](Cc1ccccc1)C(=O)OC[C@H]1OC(n2c(Br)nc3cc(Cl)c(Cl)cc32)[C@H](O)[C@@H]1O (stereo partly drawn),1.6,282,–
N[C@H](CC(=O)O)C(=O)OC[C@H]1OC(n2c(Br)nc3cc(Cl)c(Cl)cc32)[C@H](O)[C@@H]1O (stereo partly drawn),1.1,421,–
NCCCC[C@H](N)C(=O)OC[C@H]1OC(n2c(Br)nc3cc(Cl)c(Cl)cc32)[C@H](O)[C@@H]1O (stereo partly drawn),0.9,477,–
CC(C)[C@H](N)C(=O)OCCOCn1cnc2c(=O)nc(N)[nH]c21,–,–,inactive
CCOc1ccc(C[C@H](N)C(=O)OC[C@H]2OC(n3c(Br)nc4cc(Cl)c(Cl)cc43)[C@H](O)[C@@H]2O)cc1 (stereo partly drawn),4.7,96,–
O=C(OC[C@H]1OC(n2c(Br)nc3cc(Cl)c(Cl)cc32)[C@H](O)[C@@H]1O)[C@@H]1CCCN1 (stereo partly drawn),0.8,537,–
CC(C)[C@H](N)C(=O)OCCOCn1cnc2c(=O)[nH]c(N)nc21 [VALACYCLOVIR],–,431,–
N[C@@H](Cc1ccc(Cl)cc1)C(=O)OC[C@H]1OC(n2c(Br)nc3cc(Cl)c(Cl)cc32)[C@H](O)[C@@H]1O (stereo partly drawn),3.1,142,–
CCC(C)[C@H](N)C(=O)OC[C@H]1O[C@@H](n2c(Br)nc3cc(Cl)c(Cl)cc32)[C@H](O)[C@@H]1O (stereo partly drawn),3.7,121,–
N[C@@H](Cc1ccccc1)C(=O)OC[C@H]1OC(n2c(Br)nc3cc(Cl)c(Cl)cc32)[C@H](O)[C@@H]1O (stereo partly drawn),2.1,218,–
OC[C@H]1O[C@H](n2c(Br)nc3cc(Cl)c(Cl)cc32)[C@@H](O)[C@H]1O,–,447,inactive
CC(C)[C@H](N)C(=O)OC[C@H]1OC(n2c(Br)nc3cc(Cl)c(Cl)cc32)[C@H](O)[C@@H]1O (stereo partly drawn),2.7,166,–
COc1ccc(C[C@H](N)C(=O)OC[C@H]2OC(n3c(Br)nc4cc(Cl)c(Cl)cc43)[C@H](O)[C@@H]2O)cc1 (stereo partly drawn),1.5,300,–
N[C@@H](CC(=O)O)C(=O)OC[C@H]1OC(n2c(Br)nc3cc(Cl)c(Cl)cc32)[C@H](O)[C@@H]1O (stereo partly drawn),1.7,260,–
